The compounds below were run on rat small-intestine epithelial cell strain, IEC-6 (assay: Inhibition test of triacylglycerol synthesis in the small intestine epithelium (Nile Red, FACS)). Conditions: relative value, linoleic acid = 100; 200 μM, 24 hours.
Assay type: cell-based
Protocol: Using FCS (fetal calf serum)-free, Dulbecco's modified Eagle's medium (D-MEM) with 5% FBS and 70 μg/mL kanamycin added therein, a rat small-intestine epithelial cell strain, IEC-6, was incubated under 5% CO2 at 37° C. […] Twenty-four hours later, the individual cultures were washed with PBS and subsequent to treatment with tripsin, were peeled off from Culture dishes. Those cultures were separately suspended in portions of HBSS which contained Nile Red (100 ng/mL). Subsequent to incubation at room temperature for […], FACS analysis was conducted. From average fluorescence intensities, synthesized quantities of triacylglycerols were measured.
In the case of `CCCCCCCC/C=C\CCCCCCCC(=O)O` [Oleic acid], the “Fluorescence intensity (synthesized quantity of triacylglycerols)” value (from here on “Fluorescence intensity”) is reported as 191. With `CCCCC/C=C\C/C=C\C/C=C\C/C=C\CCCC(=O)O` [Arachidonic acid] the “Fluorescence intensity” value was 87. In the case of `CC/C=C\C/C=C\C/C=C\C/C=C\C/C=C\C/C=C\CCC(=O)O` [Docosahexaenoic acid], the “Fluorescence intensity” value is reported as 49. In the case of `CC/C=C\C/C=C\C/C=C\C/C=C\C/C=C\CCCC(=O)O` [Eicosapentaenoic acid], the “Fluorescence intensity” value is reported as 52. In the case of `CCCCC/C=C\C/C=C\C/C=C\CCCCC(=O)O` [γ-Linolenic acid], the “Fluorescence intensity” value is reported as 70. For `CCCCC/C=C\C/C=C\CCCCCCCC(=O)O` [Linoleic acid], the “Fluorescence intensity” value was 100. In the case of `CC/C=C\C/C=C\C/C=C\CCCCCCCC(=O)O` [α-Linolenic acid], the “Fluorescence intensity” value is reported as 42.
